Consider three molecules from paper PMC5267425, “Identification of small molecule modulators of HIV-1 Tat and Rev protein accumulation” (Retrovirology, 2017).

Series [1] is described as follows: XTT assay, SupT1 24STNLESG cells. It is filed as cell-based. Conditions: human. On the procedure: Additional file 1: Figure S1. 791 and 833 Suppress HIV-1 Gene Expression in SupT1 24NESLG Cell Line. a Schematic of HIV-1 provirus used to generated the stably transduced SupT1 cell line. b Effect of 791 and 833 on Gag expression in SupT1 NLESG cells. Cells were treated with indicated concentrations of 791/833 then HIV-1 expression induced by PMA addition. Media harvested after 24 h was subsequently assayed using Gag (p24) ELISA. Cell viability was measured by an XTT assay. 892 was not active in this cell line at the concentrations tested Additional file 2: Figure S7. Effect of compounds on CEM-GXR cell viability. Evaluation of 791, 833, and 892 on CEM-GXR cell viability in the Guava ViaCount assay. Cells were analyzed after 24 h incubation with the compounds at the indicated concentrations ranging between 0–47 μM (791), 0–5 μM (833), or 0–62.5 μM (892). Results are expressed as the percentage (%) of viable cells relative to DMSO treatment ±SEM of two independent experiments performed in triplicate. […] Images are cropped to show a representative field of view. b The dose range of the compounds which inhibit HIV-1 GagGFP expression in HeLa rtTA HIVGagGFP C7 cells was measured by mean fluorescence intensity and expressed relative to fluorescence intensity in DMSO-treated samples (N ≥ 3, *p ≤ 0.05, **p ≤ 0.01, and ***p ≤ 0.001). […]

The next series has as its system HeLa rtTA HIV∆Mls cells. The experiment in a line: XTT cell metabolism/viability assay, HeLa. It is filed as cell-based. Conditions: for cell viability at dose required to reduce Gag expression by >80%: XTT and Trypan blue exclusion, 791 20 µM, 833 10 µM. As to the method:
Effects of compound treatment on cellular metabolism was assessed by an XTT-based in vitro toxicology assay kit (Sigma-Aldrich) or Trypan blue exclusion (Life Technologies) as proxy for degree of cytotoxicity and expressed relative to DMSO control treatment. For measurement of cell viability using XTT, culture media was removed after 24, 72, and 96 h of compound treatment, replaced with 20% XTT solution and incubated at 37 °C in a 5% CO2 humidified incubator for 2–6 h, and relative cell viability was measured in compound treated cells relative to DMSO-treated cells. Cell viability measurements in CEM-GXR cells are described above.
On the technique in general: Tetrazolium assays rely on reduction of a dye to a coloured formazan, in cell work by metabolically active cells.

A further series relates to PBMCs. The experiment in a line: Trypan blue exclusion, PBMCs. It is filed as cell-based, human. Conditions: PBMCs. As to the method: To examine the effect of compounds on viral replication, studies were carried out in peripheral blood mononuclear cells (PBMCs). PBMCs were isolated from healthy (HIV-uninfected) volunteer blood donors as described by Dobson-Belaire et al.. Informed consent was obtained from participants in accordance with the guidelines for conduct of clinical research at the University of Toronto and St. Michael’s Hospital, Toronto, Ontario, Canada. Stored PBMCs were thawed, washed with RPMI 1640 complete medium and cultured in RPMI 1640 complete medium containing 2 μg/mL of PHA-L (Sigma-Aldrich) and 20 U/mL of IL-2 (BD Pharmingen) for 72 h. Subsequently, cells were counted and a portion of the cells was separated to another tube for uninfected control treatments. The remaining PBMCs were resuspended in media containing HIV-1 BaL at a multiplicity of infection (MOI) of approximately 0.01 and infected by spinoculation, following which cells were washed twice with room temperature RPMI 1640 complete medium and resuspended to a concentration of 5 × 10^5 cells/mL in complete RPMI 1640 containing 20 U/mL of IL-2. Compounds were added to infected PBMCs or uninfected control PBMCs. Azidothymidine (AZT, Sigma-Aldrich) was used as control treatment at a final concentration of 3.74 μM. On day 4 post infection, culture medium was replenished with the compounds and IL-2 in fresh complete RPMI 1640. On days 2, 4, 6 and 8 post infection, culture supernatant was harvested, virus lysed by adjusting to 1% TritonX-100 and stored at −20 °C for p24 antigen ELISA. A fraction of the culture was harvested to assess percent cell viability by trypan blue exclusion using Glasstic slides (Kova). Relative percent cell viability in compound treated samples versus DMSO-control treated samples was calculated as follows: (total viable cells/total cells)compound/(total viable cells/total cells)DMSO.

The CC50 is the concentration that lowers cell viability or growth by half. Lower therefore signals greater toxicity to the cells. Consider `Cc1cc(NCc2cccnc2)n2ncc(-c3ccc(Cl)cc3)c2n1` [Compound 791, 3-(4-chlorophenyl)-5-methyl-N-(3-pyridinylmethyl)pyrazolo[1,5-a]pyrimidin-7-amine], for which the 50% cytotoxic concentration (CC50) at 24 h in series [1] was greater than 60 µM. The “toxicity on extended culture (cell proliferation by XTT)” value with HeLa rtTA HIV∆Mls cells (1, 3 and 4 days post-treatment, in comparison to 833 and 892 (Figure S5)) was “reduced toxicity”. Besides, in the series on HeLa rtTA HIV∆Mls cells, the “cell viability at dose required to reduce Gag expression by >80%” value is listed as “not affected”.
As for `COc1ccc(C=NNC(=O)c2ccccc2O)cc1O` [Compound 892, 2-hydroxy-N′-(3-hydroxy-4-methoxybenzylidene)benzohydrazide], in the series with PBMCs, the “toxicity at concentrations required to block HIV-1 replication” value is on record as “displayed toxicity”.
In series [1], `O=C(NC(=S)NNC(=O)c1ccccc1O)c1ccc(-c2ccccc2)cc1` [Compound 833, N-([2-(2-hydroxybenzoyl)hydrazino]carbonothioyl}-4-biphenylcarboxamide] registered a CC50 at 24 h greater than 20 µM. Further, the “cell viability at dose required to reduce Gag expression by >80%” value in the series on HeLa rtTA HIV∆Mls cells is reported as “not affected”. Besides, the “mitochondrial function by XTT” value with HeLa rtTA HIV∆Mls cells (up to 10 µM) was “some reduction in mitochondrial function”. Also, in the series on PBMCs, the “toxicity at concentrations required to block HIV-1 replication” value is listed as “displayed toxicity”.
